Assay results from patent publication EP4635500A1, “THERAPEUTIC AGENT FOR BACTERIAL INFECTION” (Sumitomo Pharma Co., Ltd., priority 2022, dated 2024).
In brackets after ≈: the same amount, converted by molar mass. Read-outs that look alike come from different tables or passages of the source.

Test system: Gram-positive bacteria
Test: MIC, agar dilution, anaerobic bacteria (Example 9, Tables 21, 26)
Format: cell-based

## Cc1ncc([N+](=O)[O-])n1CCO [Metronidazole]
ATCC43255, KUB No. 3518 Clostridioides difficile ATCC 43255, read-out: MIC
  MIC: 0.5 µg/mL (≈ 2.92 µM)
ATCC700057, KUB No. 2978 Clostridioides difficile ATCC 700057, read-out: MIC
  MIC: 0.5 µg/mL (≈ 2.92 µM)
ATCCBAA1803, KUB No. 3511 Clostridioides difficile ATCC BAA-1803, read-out: MIC
  MIC: 1 µg/mL (≈ 5.84 µM)
ATCCBAA1870, KUB No. 3385 Clostridioides difficile ATCC BAA-1870, read-out: MIC
  MIC: 0.5 µg/mL (≈ 2.92 µM)
Cutibacterium acnes, ATCC11827
  MIC: > 64 µg/mL
Finegoldia magna, ATCC29328
  MIC: 1 µg/mL (≈ 5.84 µM)
Gram-positive bacteria, read-out: MIC50
  MIC50: 0.5 µg/mL (≈ 2.92 µM)
Gram-positive bacteria, read-out: MIC90
  MIC90: 2 µg/mL (≈ 11.7 µM)
KUB No. 3013 Bulleidia extructa, read-out: MIC
  MIC: 2 µg/mL (≈ 11.7 µM)
KUB No. 3014 Atropobium rimae, read-out: MIC
  MIC: 2 µg/mL (≈ 11.7 µM)
Olsenella uli
  MIC: 2 µg/mL (≈ 11.7 µM)
Peptoniphilus asaccharolyticus, ATCC14963
  MIC: 0.5 µg/mL (≈ 2.92 µM)
Peptoniphilus indolicus
  MIC: 0.25 µg/mL (≈ 1.46 µM)
Peptostreptococcus anaerobius
  MIC: 0.5 µg/mL (≈ 2.92 µM)
Schaalia odontolytica, ATCC17929, KUB No. 3488 Actinomyces odontolyticus ATCC 17929, read-out: MIC
  MIC: 32 µg/mL (≈ 187 µM)
